Laboratory results published in patent US10716795B2, “Steroid analogues for neuroprotection” (Emory University, priority 2008, dated 2020).
In brackets after ≈: the same amount, converted by molar mass. Structures can show the parent of a compound that is named as a salt.

Assays:
[1] = system: Primary cortical cells; assay: MTT assay of glutamate toxicity in primary cortical cells; format: cell-based; conditions: for reduction in cell death at 5 μM: 5 μM compound, glutamate 0.5 μM 24 h; for reduction in cell death best concentration: 24 h pre-treatment, then glutamate 0.5 μM 24 h, at the best concentration; for best concentration (for reduction in cell death): tested 0.1-80 μM, glutamate 0.5 μM; for cell survival / reduction in cell death (in words): glutamate toxicity, cortical neurons
Procedure: Primary cortical cells were seeded in multi-well plates and cultured for 8 days. […] Cells were next exposed to glutamate (0.5 μM) for the following 24 h. Cytotoxicity was assessed by the MTT [3-(4,5-dimethylthiazol-2-yl)-2,5-diphenyltetrazolium bromide] assay, which is based on the ability of a mitochondrial dehydrogenase enzyme from viable cells to cleave the tetrazolium rings of the pale yellow MTT. This reaction forms dark blue formazan crystals which are largely impermeable to cell membranes, thus resulting in their accumulation within healthy cells. Solubilization of the cells results in the liberation of the crystals, which are then also solubilized. The number of surviving cells is directly proportional to the level of the formazan product created.

[2] = system: cerebral edema; assay: cerebral edema assay in whole animal model of TBI (cortical contusion); format: in vivo, rat; conditions: for efficacy in the cerebral edema assay (edema reduction) relative to PROG or group / mean % difference edema (injured vs non-injured tissue): male rats, cortical contusion; for efficacy in the cerebral edema assay (edema reduction) relative to PROG or group: two 8 mg/kg doses at 1 h and 6 h; for mean % difference edema (injured vs non-injured tissue): two 8 mg/kg doses at 1 h and 6 h post-surgery, brain tissue 24 hours post brain injury; for edema compared to subjects treated with vehicle: rat brain tissue 24 hours post brain injury
Procedure: Anesthetized male rats were first subjected to cortical contusion and were then given two 8 mg/kg doses of the test compound, the first at 1 h post-surgery and the second at 6 h. The animals were then sacrificed and tissue samples were taken from both injured and non-injured sections of the brain. Wet and dry weights were collected for each sample and cerebral edema (% water content) was determined as the difference in wet and dry weights divided by the wet weight. A “% mean difference” value could then be calculated based on the relative edema difference between injured and non-injured tissue samples for a given animal. […] The “vehicle” group were subjected to cortical injury but received only the drug carrier (22.5% 2-hydroxypropyl-β-cyclodextrine in water). All experimental treatments given by injection were made in stock solutions using 2-Hydroxypropyl-b-cyclodextrin (HBC; 45% w/v solution in H2O) as the solvent. These experimental solutions were then diluted 1:1 with sterile water for a final concentration of HBC of 22.5%.

[3] = physchem
Procedure: Several compounds were screened for solubility (FIG. 2). Solubility testing was done in phosphate buffered saline, which is considered to be a good model system for physiological conditions. Compounds were added in small portions at room temperature with stirring until a visible endpoint of saturation was reached.

[4] = pharmacokinetic analysis in non-injury whole animal rat study (serum levels); conditions: IV 10 mg/kg, serum over 12 h
Procedure: Select compounds were submitted for pharmacokinetic analysis in a non-injury whole animal rat study.
The compounds were intravenously (IV) dosed at 10 mg/kg and serum samples were taken at several time points over the course of 12 h. Serum concentration levels were determined for the analogues, as well as for their respective parent compound.

[5] = PROG IP at 4 mg/kg, male rats; cited from earlier work
[6] = cited from earlier work
[7] = system: glutathione reductase; assay: glutathione reductase activity following TBI; format: in vivo; conditions: relative to progesterone and allopregnanolone
[8] = system: PR-mediated gene transcription; assay: PR-mediated gene transcription; format: cell-based
[9] = aqueous buffer, thermodynamic from solid

| Structure (SMILES) | reduction in cell death at 5 μM [1] [%] | reduction in cell death best concentration [1] [%] | best concentration (for reduction in cell death) [1] [µM] | efficacy in the cerebral edema assay (edema reduction) relative to PROG or group [2] | in vivo stability of amino acid side chain / conversion to parent compound [4] | further results |
| --- | --- | --- | --- | --- | --- | --- |
| CC(=O)[C@H]1CC[C@H]2[C@@H]3CC[C@H]4C[C@H](O)CC[C@]4(C)[C@H]3CC[C@]12C [ALLO, allopregnanolone, reference compound] | −3 | 40 | 80 | – | – | – |
| CC(=O)[C@H]1CCC2C3CCC4=C[C@@H](OC(=O)[C@@H](N)C(C)C)CC[C@]4(C)C3CC[C@@]21C (stereo partly drawn) [Compound P1-31, 3β-L-Valine-progesterone-HC] | – | – | – | equivalent efficacy to progesterone | cleaved almost immediately | mean % difference edema (injured vs non-injured tissue) [2]: 2.2%; edema compared to subjects treated with vehicle [2]: decrease in edema; solubility [3, 9]: 3850 µg/mL (≈ 9.26 mM) |
| CC(=O)[C@H]1CC[C@H]2[C@@H]3CCC4=C[C@@H](OC(=O)[C@@H]5CCCN5)CC[C@]4(C)[C@H]3CC[C@]12C [Compound P1-33, 3β-L-Proline-progesterone-HCl] | – | – | – | – | cleaved almost immediately | – |
| CC(C)[C@H](N)C(=O)O[C@@H](C)[C@H]1CCC2C3CCC4=CC(=O)CC[C@]4(C)C3CC[C@@]21C (stereo partly drawn) [Compound P1-57, 20-S-L-Valine-progesterone HCl Salt] | 23 | 30 | 10 | – | – | cell survival / reduction in cell death (in words) [1]: significant reductions in cell death |
| CC(=O)[C@H]1CCC2C3CCC4=C/C(=N/OC(=O)[C@@H](N)Cc5c[nH]c6ccccc56)CC[C@]4(C)C3CC[C@@]21C (stereo partly drawn) [Compound P1-79, O-L-Tryptophan-C3-oxime-progesterone HCl Salt] | – | – | – | – | – | mean % difference edema (injured vs non-injured tissue) [2]: 1.9%; edema compared to subjects treated with vehicle [2]: decrease in edema |
| CC(=O)[C@H]1CCC2C3CC[C@H]4C[C@H](OC(=O)[C@@H](N)C(C)C)CC[C@]4(C)C3CC[C@@]21C (stereo partly drawn) [Compound P1-131, 3α-L-Valine-5α-pregnan-20-one HCl Salt] | – | – | – | greatest edema reduction among the ALLO isomer group | stable for a prolonged period of time and only gradually converted to its parent, ALLO | – |
| CC(=O)[C@H]1CCC2C3CC[C@@H]4C[C@H](OC(=O)[C@@H](N)C(C)C)CC[C@]4(C)C3CC[C@@]21C (stereo partly drawn) [Compound P1-133, 3α-L-Valine-5-pregnane-20-one HCl Salt] | – | – | – | – | – | solubility [3, 9]: 330 µg/mL |
| CC(=O)[C@H]1CC[C@H]2[C@@H]3CCC4=C/C(=N/OC(=O)[C@@H](N)C(C)C)CC[C@]4(C)[C@H]3CC[C@]12C [Compound P1-185, 3-Valine-E-oxime-progesterone HCl] | 27 | 27 | 5 | equivalent efficacy to progesterone | – | solubility [3, 9]: 13000 µg/mL; cell survival / reduction in cell death (in words) [1]: highest levels of cell survival among the compounds screened |
| CC(=O)[C@H]1CC[C@H]2[C@@H]3CCC4=C/C(=N\OC(=O)[C@@H](N)C(C)C)CC[C@]4(C)[C@H]3CC[C@]12C [Compound P1-186, 3-Valine-Z-oxime-progesterone HCl] | 34 | 34 | 5 | average reduction in edema levels almost twice that of PROG | readily cleaved to give primarily the parent oxime P2-02 | solubility ([3]; phosphate buffered saline, room temperature, visible endpoint of saturation): 15200 µg/mL; cell survival / reduction in cell death (in words) [1]: highest levels of cell survival among the compounds screened |
| CC(=O)[C@H]1CCC2C3CCC4=CC(=O)CC[C@]4(C)C3CC[C@@]21C (some centres unmarked) [PROG, progesterone, reference compound] | 4 | 42 | 20 | – | – | mean % difference edema (injured vs non-injured tissue) [2]: 2.0%; edema compared to subjects treated with vehicle [2]: decrease in edema; maximum serum concentration [5]: 28 ng/mL; reduction of mortality ([6]; 100 moderate to severe TBI patients, 3 days intravenous treatment): over 60%; functional outcomes ([6]; 30 days post-injury): significantly improved functional outcomes |
| CC(=O)[C@@H]1CCC2C3CCC4=CC(=O)CC[C@@]4(C)C3CC[C@]21C (stereo partly drawn) [ent-PROG, ent-Progesterone] | – | – | – | – | – | glutathione reductase activity [7]: significantly increased glutathione reductase activity; activation of PR-mediated gene transcription [8]: does not activate |
